# Reference: patent publication US20210198277A1, “AMINE-SUBSTITUTED ARYL OR HETEROARYL COMPOUNDS” (Epizyme, Inc., priority 2016, published 2021)
# Structures can show the parent of a compound that is named as a salt.
# Key:
# human EHMT2 913-1193 = biological target: T1, human EHMT2 913-1193 (Homo sapiens, UniProt Q96KQ7); test: EHMT2 enzyme assay on histone peptide substrate (EHMT2 PEP); format: biochemical; details: Table II; read-out: EHMT2 PEP (IC50 μM)
# T1 construct: recombinant purified human EHMT2 913-1193, Viva; purchased Viva
# T1 sequence (Q96KQ7 913-1193): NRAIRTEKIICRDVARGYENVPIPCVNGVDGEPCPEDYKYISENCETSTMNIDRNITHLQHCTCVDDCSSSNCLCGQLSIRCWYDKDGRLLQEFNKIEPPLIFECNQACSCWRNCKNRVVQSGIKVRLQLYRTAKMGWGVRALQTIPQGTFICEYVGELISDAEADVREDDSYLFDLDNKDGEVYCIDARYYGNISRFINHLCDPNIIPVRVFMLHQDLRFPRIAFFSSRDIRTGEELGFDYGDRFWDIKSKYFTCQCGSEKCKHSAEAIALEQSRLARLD
# Procedure, shortened: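 Compounds were tested as 3-fold dilutions, 10 points from a 50 μM final top (2% DMSO), after 30-min preincubation with 0.031 nM enzyme in Bicine buffer pH 7.5. Transfer of ^3H-methyl from ^3H-SAM to biotinylated histone peptide ran 60 min at room temperature and was detected by streptavidin Flashplate scintillation.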
# EHMT1 = biological target: T2, EHMT1 (Homo sapiens, UniProt Q9H9B1); test: EHMT1 enzyme assay on peptide substrate (EHMT1 PEP); format: biochemical; details: Table II; read-out: EHMT1 PEP (IC50 μM)
# T2 sequence (Q9H9B1 1-1298): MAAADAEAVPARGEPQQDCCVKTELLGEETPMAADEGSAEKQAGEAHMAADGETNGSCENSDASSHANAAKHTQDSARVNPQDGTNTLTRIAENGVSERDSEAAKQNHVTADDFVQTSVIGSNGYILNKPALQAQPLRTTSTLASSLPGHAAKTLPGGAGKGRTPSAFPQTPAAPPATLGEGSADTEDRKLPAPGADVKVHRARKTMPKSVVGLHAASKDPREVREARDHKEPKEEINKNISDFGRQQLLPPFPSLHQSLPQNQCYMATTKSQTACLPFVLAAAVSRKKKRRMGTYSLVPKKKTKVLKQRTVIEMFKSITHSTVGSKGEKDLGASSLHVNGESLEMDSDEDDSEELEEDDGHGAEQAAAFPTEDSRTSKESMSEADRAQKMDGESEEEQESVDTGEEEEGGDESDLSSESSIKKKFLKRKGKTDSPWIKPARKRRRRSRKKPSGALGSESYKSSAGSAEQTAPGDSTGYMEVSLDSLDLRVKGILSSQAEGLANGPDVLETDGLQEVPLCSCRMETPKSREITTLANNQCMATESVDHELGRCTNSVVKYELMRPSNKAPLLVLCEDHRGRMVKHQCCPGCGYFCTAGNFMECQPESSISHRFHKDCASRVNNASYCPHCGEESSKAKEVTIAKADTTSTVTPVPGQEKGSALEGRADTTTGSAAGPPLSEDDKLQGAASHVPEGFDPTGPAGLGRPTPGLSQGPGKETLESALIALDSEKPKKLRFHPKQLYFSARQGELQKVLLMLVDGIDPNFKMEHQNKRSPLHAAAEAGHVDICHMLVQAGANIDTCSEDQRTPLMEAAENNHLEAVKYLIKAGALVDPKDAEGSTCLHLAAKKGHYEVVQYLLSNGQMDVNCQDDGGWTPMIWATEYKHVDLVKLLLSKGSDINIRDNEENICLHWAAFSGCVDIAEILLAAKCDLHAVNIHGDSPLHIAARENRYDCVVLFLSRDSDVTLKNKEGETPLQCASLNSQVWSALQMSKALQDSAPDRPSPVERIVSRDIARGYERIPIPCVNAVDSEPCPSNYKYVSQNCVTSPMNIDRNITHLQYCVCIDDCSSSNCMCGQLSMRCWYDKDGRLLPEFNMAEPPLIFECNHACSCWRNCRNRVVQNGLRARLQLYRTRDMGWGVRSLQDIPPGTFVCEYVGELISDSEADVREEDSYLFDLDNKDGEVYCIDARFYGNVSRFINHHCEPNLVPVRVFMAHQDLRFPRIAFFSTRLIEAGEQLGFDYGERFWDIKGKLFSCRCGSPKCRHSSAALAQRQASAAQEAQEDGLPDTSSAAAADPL
IC50 (human EHMT2 913-1193) [µM],IC50 (EHMT1) [µM],Structure (SMILES)
> 10,> 10,COc1ccc(N(C)c2nccc(NCC3CCN(C(C)=O)CC3)n2)cc1OCCCN1CCCC1 [Compound 158]
0.1 to 1,0.1 to 1,COc1ccc(Nc2nccc(NC3CN(C(C)=O)C3)n2)cc1OCCCN1CCCC1 [Compound 192]
< 0.1,< 0.1,"COc1ccc(Nc2ccnc(NCC3CCNCC3)n2)cc1OCCCN1CCCC1 [Compound 7, 4-N-[4-methoxy-3-[3-(pyrrolidin-1-yl)propoxy]phenyl]-2-N-(piperidin-4-ylmethyl)pyrimidine-2,4-diamine hydrochloride]"
0.1 to 1,0.1 to 1,COc1ccc(Nc2nccc(NCCC3CCOCC3)n2)cc1OCCCN1CCCC1 [Compound 178]
1 to 10,1 to 10,COc1ccc(Nc2nccc(NCC3CCN(C(C)=O)CC3)n2)cc1OC(C)CCN1CCCC1 (stereo not shown) [Compound 195]
1 to 10,1 to 10,COc1ccc(Nc2nccc(N3CCC(C(C)(C)O)CC3)n2)cc1OCCCN1CCCC1 [Compound 147]

# Further lines, the compound ahead of its results:
Structure (SMILES),IC50 (human EHMT2 913-1193) [µM],IC50 (EHMT1) [µM]
COc1ccc(Nc2nccc(NCC3CCOCC3)n2)cc1OCCN1CCOCC1 [Compound 204],1 to 10,1 to 10
COc1ccc(Nc2cc(CNC3CCNCC3)n(C)n2)cc1OCCCN1CCCC1 [Compound 126],> 10,> 10
COc1ccc(Nc2nccc(-n3cc(C)cn3)n2)cc1OCCCN1CCCC1 [Compound 180],> 10,> 10
COc1ccc(Nc2nccc(N3CCc4cn[nH]c4C3)n2)cc1OCCCN1CCCC1 [Compound 155],1 to 10,> 10
COc1ccc(Nc2nccc(NC3COC3)n2)cc1OCCCN1CCCC1 [Compound 137],1 to 10,1 to 10
